Reference: patent US9393271B2, “GHRH agonists for islet cell transplantation and function and the treatment of diabetes” (UNIVERSITY OF MIAMI, priority 2012, dated 2016)
Non-standard residues stand in square brackets, D forms with d. Residues, ends and D or L forms follow the SMILES beside them. *: point of attachment. Desaminotyrosyl = O=C(CCc1ccc(O)cc1)*; NMeY = CN[C@@H](Cc1ccc(O)cc1)C(=O)O; Nle = CCCC[C@H](N)C(=O)O; Orn = NCCC[C@H](N)C(=O)O; dAbu = CC[C@@H](N)C(=O)O; Abu = CC[C@H](N)C(=O)O; Aoc = NCCCCCCCC(=O)O; Ava = NCCCCC(=O)O; GABA = NCCCC(=O)O

Biological target: T1, GHRH receptor (human pituitary membrane homogenates) (Homo sapiens, UniProt Q02643)
T1 sequence (Q02643 23-423): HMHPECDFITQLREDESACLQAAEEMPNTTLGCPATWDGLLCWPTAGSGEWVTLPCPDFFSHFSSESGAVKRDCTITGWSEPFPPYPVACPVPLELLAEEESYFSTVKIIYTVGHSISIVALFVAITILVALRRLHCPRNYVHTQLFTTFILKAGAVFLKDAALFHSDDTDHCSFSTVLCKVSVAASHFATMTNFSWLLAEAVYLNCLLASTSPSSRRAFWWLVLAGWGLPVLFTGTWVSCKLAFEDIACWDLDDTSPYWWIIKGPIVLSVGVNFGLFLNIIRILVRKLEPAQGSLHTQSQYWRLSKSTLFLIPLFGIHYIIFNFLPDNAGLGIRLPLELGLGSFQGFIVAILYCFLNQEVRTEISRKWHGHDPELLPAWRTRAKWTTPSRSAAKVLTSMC
Experiment: GHRH receptor binding, ligand competition with 125I-labeled JV-1-42 (Table 7)
Parameters: Normal human pituitaries were purchased from the National Hormone and Peptide Program; tissue National Hormone and Peptide Program (A. F. Parlow, Harbor-UCLA Medical Center, Torrance, Calif.); host or cells: normal human pituitary, membrane fraction / homogenate
Details: JI-38 = 1

SMILES | Relative affinitiy (Binding potency) vs JI-38
CCCC[C@H](NC(=O)[C@@H](NC(=O)[C@H](CC(=O)O)NC(=O)[C@H](CCC(N)=O)NC(=O)[C@H](CC(C)C)NC(=O)[C@H](CC(C)C)NC(=O)[C@H](CCCN)NC(=O)[C@H](CCCNC(=N)N)NC(=O)[C@H](C)NC(=O)[C@H](CO)NC(=O)[C@H](CC(C)C)NC(=O)[C@H](CCC(N)=O)NC(=O)[C@H](CC)NC(=O)[C@H](CC(C)C)NC(=O)[C@@H](NC(=O)[C@H](CCCN)NC(=O)[C@H](CCCNC(=N)N)NC(=O)[C@H](Cc1ccc(O)cc1)NC(=O)[C@H](CO)NC(=O)[C@H](CC(N)=O)NC(=O)[C@@H](NC(=O)[C@H](Cc1ccccc1)NC(=O)[C@@H](NC(=O)[C@H](C)NC(=O)[C@H](CC(=O)O)NC(=O)[C@@H](C)NC(=O)[C@H](Cc1ccc(O)cc1)NC)[C@@H](C)CC)[C@@H](C)O)C(C)C)[C@@H](C)CC)C(=O)N[C@@H](CC(=O)O)C(=O)N[C@@H](CCCNC(=N)N)C(=O)NCCCCCCCC(N)=O [Peptide P-21303, [N—Me-Tyr^1, D-Ala^2, Orn^12, Abu^15, Orn^21, Nle^27, Asp^28, Amc^30]hGHRH(1-30)NH2] (H-[NMeY][dA]DAIFTNSYR[Orn]VL[Abu]QLSAR[Orn]LLQDI[Nle]DR[Aoc]-NH2) | 2.32
CCCC[C@H](NC(=O)[C@@H](NC(=O)[C@H](CC(=O)O)NC(=O)[C@H](CCC(N)=O)NC(=O)[C@H](CC(C)C)NC(=O)[C@H](CC(C)C)NC(=O)[C@H](CCCN)NC(=O)[C@H](CCCNC(=N)N)NC(=O)[C@H](C)NC(=O)[C@H](CO)NC(=O)[C@H](CC(C)C)NC(=O)[C@H](CCC(N)=O)NC(=O)[C@H](CC)NC(=O)[C@H](CC(C)C)NC(=O)[C@@H](NC(=O)[C@H](CCCN)NC(=O)[C@H](CCCNC(=N)N)NC(=O)[C@H](Cc1ccc(O)cc1)NC(=O)[C@H](CO)NC(=O)[C@H](CCC(N)=O)NC(=O)[C@@H](NC(=O)[C@H](Cc1ccccc1)NC(=O)[C@@H](NC(=O)[C@H](C)NC(=O)[C@H](CC(=O)O)NC(=O)[C@H](C)NC(=O)CCc1ccc(O)cc1)[C@@H](C)CC)[C@@H](C)O)C(C)C)[C@@H](C)CC)C(=O)N[C@@H](CC(=O)O)C(=O)N[C@@H](CCCNC(=N)N)C(=O)NCCCCC(N)=O [Peptide P-22327, [Dat^1, Gln^8, Orn^12, Abu^15, Orn^21, Nle^27, Asp^28, Apa^30]hGHRH(1-30)NH2] (Desaminotyrosyl-ADAIFTQSYR[Orn]VL[Abu]QLSAR[Orn]LLQDI[Nle]DR[Ava]-NH2) | 2.18
CCCC[C@H](NC(=O)[C@@H](NC(=O)[C@H](CC(=O)O)NC(=O)[C@H](CCC(N)=O)NC(=O)[C@H](CC(C)C)NC(=O)[C@H](CC(C)C)NC(=O)[C@H](CCCN)NC(=O)[C@H](CCCNC(=N)N)NC(=O)[C@H](C)NC(=O)[C@H](CO)NC(=O)[C@H](CC(C)C)NC(=O)[C@H](CCC(N)=O)NC(=O)[C@H](CC)NC(=O)[C@H](CC(C)C)NC(=O)[C@@H](NC(=O)[C@H](CCCN)NC(=O)[C@H](CCCNC(=N)N)NC(=O)[C@H](Cc1ccc(O)cc1)NC(=O)[C@H](CO)NC(=O)[C@H](CC(N)=O)NC(=O)[C@@H](NC(=O)[C@H](Cc1ccccc1)NC(=O)[C@@H](NC(=O)[C@H](C)NC(=O)[C@H](CC(=O)O)NC(=O)[C@H](CC)NC(=O)[C@H](Cc1ccc(O)cc1)NC)[C@@H](C)CC)[C@@H](C)O)C(C)C)[C@@H](C)CC)C(=O)N[C@@H](CO)C(=O)N[C@@H](CCCNC(=N)N)C(=O)NCCCC(N)=O [Peptide P-25503, [N—Me-Tyr^1, Abu^2, Orn^12, Abu^15, Orn^21, Nle^27, Gab^30]hGHRH(1-30)NH2] (H-[NMeY][Abu]DAIFTNSYR[Orn]VL[Abu]QLSAR[Orn]LLQDI[Nle]SR[GABA]-NH2) | 3.67
CCCC[C@H](NC(=O)[C@@H](NC(=O)[C@H](CC(=O)O)NC(=O)[C@H](CCC(N)=O)NC(=O)[C@H](CC(C)C)NC(=O)[C@H](CC(C)C)NC(=O)[C@H](CCCN)NC(=O)[C@H](CCCNC(=N)N)NC(=O)[C@H](C)NC(=O)[C@H](CO)NC(=O)[C@H](CC(C)C)NC(=O)[C@H](CCC(N)=O)NC(=O)[C@H](CC)NC(=O)[C@H](CC(C)C)NC(=O)[C@@H](NC(=O)[C@H](CCCN)NC(=O)[C@H](CCCNC(=N)N)NC(=O)[C@H](Cc1ccc(O)cc1)NC(=O)[C@H](CO)NC(=O)[C@H](CC(N)=O)NC(=O)[C@@H](NC(=O)[C@H](Cc1ccccc1)NC(=O)[C@@H](NC(=O)[C@H](C)NC(=O)[C@H](CC(=O)O)NC(=O)[C@@H](CC)NC(=O)CCc1ccc(O)cc1)[C@@H](C)CC)[C@@H](C)O)C(C)C)[C@@H](C)CC)C(=O)N[C@@H](CO)C(=O)N[C@@H](CCCNC(=N)N)C(=O)NCCCC(N)=O [Peptide P-25504, [Dat^1, D-Abu^2, Orn^12, Abu^15, Orn^21, Nle^27, Gab^30]hGHRH(1-30)NH2] (Desaminotyrosyl-[dAbu]DAIFTNSYR[Orn]VL[Abu]QLSAR[Orn]LLQDI[Nle]SR[GABA]-NH2) | 3.02
CCCC[C@H](NC(=O)[C@@H](NC(=O)[C@H](CC(=O)O)NC(=O)[C@H](CCC(N)=O)NC(=O)[C@H](CC(C)C)NC(=O)[C@H](CC(C)C)NC(=O)[C@H](CCCN)NC(=O)[C@H](CCCNC(=N)N)NC(=O)[C@H](C)NC(=O)[C@H](CO)NC(=O)[C@H](CC(C)C)NC(=O)[C@H](CCC(N)=O)NC(=O)[C@H](CC)NC(=O)[C@H](CC(C)C)NC(=O)[C@@H](NC(=O)[C@H](CCCN)NC(=O)[C@H](CCCNC(=N)N)NC(=O)[C@H](Cc1ccc(O)cc1)NC(=O)[C@H](CO)NC(=O)[C@H](CC(N)=O)NC(=O)[C@@H](NC(=O)[C@H](Cc1ccccc1)NC(=O)[C@@H](NC(=O)[C@H](C)NC(=O)[C@H](CC(=O)O)NC(=O)[C@@H](C)NC(=O)CCc1ccc(O)cc1)[C@@H](C)CC)[C@@H](C)O)C(C)C)[C@@H](C)CC)C(=O)N[C@@H](CC(=O)O)C(=O)N[C@@H](CCCNC(=N)N)C(=O)NC [Peptide P-27400, [Dat^1, D-Ala^2, Orn^12, Abu^15, Orn^21, Nle^27, Asp^28]hGHRH(1-29)NH—CH3] (Desaminotyrosyl-[dA]DAIFTNSYR[Orn]VL[Abu]QLSAR[Orn]LLQDI[Nle]DR-NHMe) | 1.30
CCCC[C@H](NC(=O)[C@@H](NC(=O)[C@H](CC(=O)O)NC(=O)[C@H](CCC(N)=O)NC(=O)[C@H](CC(C)C)NC(=O)[C@H](CC(C)C)NC(=O)[C@H](CCCN)NC(=O)[C@H](CCCNC(=N)N)NC(=O)[C@H](C)NC(=O)[C@H](CO)NC(=O)[C@H](CC(C)C)NC(=O)[C@H](CCC(N)=O)NC(=O)[C@H](CC)NC(=O)[C@H](CC(C)C)NC(=O)[C@@H](NC(=O)[C@H](CCCN)NC(=O)[C@H](CCCNC(=N)N)NC(=O)[C@H](Cc1ccc(O)cc1)NC(=O)[C@H](CO)NC(=O)[C@H](CCC(N)=O)NC(=O)[C@@H](NC(=O)[C@H](Cc1ccccc1)NC(=O)[C@@H](NC(=O)[C@H](C)NC(=O)[C@H](CC(=O)O)NC(=O)[C@@H](C)NC(=O)CCc1ccc(O)cc1)[C@@H](C)CC)[C@@H](C)O)C(C)C)[C@@H](C)CC)C(=O)N[C@@H](CC(=O)O)C(=O)N[C@H](CCCNC(=N)N)C(=O)NC [Peptide P-27401, [Dat^1, D-Ala^2, Gln^8, Orn^12, Abu^15, Orn^21, Nle^27, Asp^28, D-Arg^29]hGHRH(1-29)NH—CH3] (Desaminotyrosyl-[dA]DAIFTQSYR[Orn]VL[Abu]QLSAR[Orn]LLQDI[Nle]D[dR]-NHMe) | 1.59
